From the NIST ThermoML archive (doi:10.1016/j.jct.2009.11.014)

Settings: Liquid; for mass density: vibrating tube; for viscosity: Stony Brook Scientific falling needle HPHTV-100 viscometer

CCCCCCCC[n+]1ccn(C)c1.F[B-](F)(F)F [1-methyl-3-octylimidazolium tetrafluoroborate]
Settings | mass density [kg/m3] | viscosity [mPa·s]
283.15 K, 100 kPa | 1114.58 | –
283.15 K, 2000 kPa | 1115.49 | –
283.15 K, 4000 kPa | 1116.46 | –
283.15 K, 6000 kPa | 1117.44 | –
283.15 K, 8000 kPa | 1118.4 | –
283.15 K, 10000 kPa | 1119.31 | –
283.15 K, 12000 kPa | 1120.25 | –
283.15 K, 14000 kPa | 1121.19 | –
283.15 K, 20000 kPa | 1123.96 | –
283.15 K, 30000 kPa | 1128.45 | –
283.15 K, 40000 kPa | 1132.79 | –
283.15 K, 50000 kPa | 1136.9 | –
283.15 K, 60000 kPa | 1140.94 | –
283.53 K, 140 kPa | – | 774.7
283.53 K, 680 kPa | – | 781
283.55 K, 1680 kPa | – | 793.9
283.55 K, 7960 kPa | – | 878.4
283.6 K, 11830 kPa | – | 908.6
283.6 K, 14620 kPa | – | 950.1
283.61 K, 10090 kPa | – | 894.7
283.63 K, 4380 kPa | – | 815.4
283.65 K, 4110 kPa | – | 811.4
283.67 K, 5540 kPa | – | 834.1
283.72 K, 2750 kPa | – | 803.7
288.15 K, 100 kPa | 1111.12 | –
288.15 K, 2000 kPa | 1112.07 | –
288.15 K, 4000 kPa | 1113.07 | –
288.15 K, 6000 kPa | 1114.04 | –
288.15 K, 8000 kPa | 1115.03 | –
288.15 K, 10000 kPa | 1116.03 | –
288.15 K, 12000 kPa | 1116.94 | –
288.15 K, 14000 kPa | 1117.9 | –
288.15 K, 20000 kPa | 1120.72 | –
288.15 K, 30000 kPa | 1125.21 | –
288.15 K, 40000 kPa | 1129.56 | –
288.15 K, 50000 kPa | 1133.75 | –
288.15 K, 60000 kPa | 1137.81 | –
293.15 K, 100 kPa | 1107.68 | –
293.15 K, 2000 kPa | 1108.68 | –
293.15 K, 4000 kPa | 1109.68 | –
293.15 K, 6000 kPa | 1110.66 | –
293.15 K, 8000 kPa | 1111.66 | –
293.15 K, 10000 kPa | 1112.63 | –
293.15 K, 12000 kPa | 1113.61 | –
293.15 K, 14000 kPa | 1114.55 | –
293.15 K, 20000 kPa | 1117.38 | –
293.15 K, 30000 kPa | 1121.95 | –
293.15 K, 40000 kPa | 1126.31 | –
293.15 K, 50000 kPa | 1130.56 | –
293.15 K, 60000 kPa | 1134.64 | –
293.65 K, 130 kPa | – | 403.7
293.65 K, 2010 kPa | – | 409.7
293.65 K, 4090 kPa | – | 423
293.65 K, 4310 kPa | – | 418.7
293.65 K, 6110 kPa | – | 433.3
293.65 K, 6580 kPa | – | 434.4
293.65 K, 8080 kPa | – | 447.6
293.65 K, 10200 kPa | – | 458.3
293.65 K, 12100 kPa | – | 466.6
293.65 K, 14310 kPa | – | 478.8
293.65 K, 14330 kPa | – | 483.6
298.15 K, 100 kPa | 1104.31 | –
298.15 K, 2000 kPa | 1105.26 | –
298.15 K, 4000 kPa | 1106.28 | –
298.15 K, 6000 kPa | 1107.31 | –
298.15 K, 8000 kPa | 1108.29 | –
298.15 K, 10000 kPa | 1109.29 | –
298.15 K, 12000 kPa | 1110.27 | –
298.15 K, 14000 kPa | 1111.29 | –
298.15 K, 20000 kPa | 1114.12 | –
298.15 K, 30000 kPa | 1118.74 | –
298.15 K, 40000 kPa | 1123.16 | –
298.15 K, 50000 kPa | 1127.47 | –
298.15 K, 60000 kPa | 1131.57 | –
303.15 K, 100 kPa | 1100.92 | –
303.15 K, 2000 kPa | 1101.88 | –
303.15 K, 4000 kPa | 1102.9 | –
303.15 K, 6000 kPa | 1103.93 | –
303.15 K, 8000 kPa | 1104.97 | –
303.15 K, 10000 kPa | 1105.98 | –
303.15 K, 12000 kPa | 1107.03 | –
303.15 K, 14000 kPa | 1107.96 | –
303.15 K, 20000 kPa | 1110.85 | –
303.15 K, 30000 kPa | 1115.56 | –
303.15 K, 40000 kPa | 1120.01 | –
303.15 K, 50000 kPa | 1124.34 | –
303.15 K, 60000 kPa | 1128.52 | –
303.74 K, 13240 kPa | – | 258.3
303.8 K, 2750 kPa | – | 227.3
303.82 K, 14800 kPa | – | 261.8
303.85 K, 4160 kPa | – | 230.6
303.85 K, 5600 kPa | – | 233.6
303.91 K, 8710 kPa | – | 241.6
303.95 K, 11220 kPa | – | 250.7
303.96 K, 160 kPa | – | 219.1
304.01 K, 2040 kPa | – | 222.9
304.03 K, 1190 kPa | – | 221.6
304.05 K, 6140 kPa | – | 232.1
304.05 K, 7390 kPa | – | 238.6
308.15 K, 100 kPa | 1097.49 | –
308.15 K, 2000 kPa | 1098.5 | –
308.15 K, 4000 kPa | 1099.56 | –
308.15 K, 6000 kPa | 1100.61 | –
308.15 K, 8000 kPa | 1101.64 | –
308.15 K, 10000 kPa | 1102.66 | –
308.15 K, 12000 kPa | 1103.66 | –
308.15 K, 14000 kPa | 1104.66 | –
308.15 K, 20000 kPa | 1107.61 | –
308.15 K, 30000 kPa | 1112.34 | –
308.15 K, 40000 kPa | 1116.89 | –
308.15 K, 50000 kPa | 1121.29 | –
308.15 K, 60000 kPa | 1125.53 | –
312.95 K, 650 kPa | – | 137.4
312.95 K, 1600 kPa | – | 139.3
313.05 K, 130 kPa | – | 137.3
313.05 K, 2670 kPa | – | 141.1
313.05 K, 4260 kPa | – | 142.8
313.05 K, 6130 kPa | – | 145.7
313.05 K, 8180 kPa | – | 150.2
313.05 K, 10130 kPa | – | 152.7
313.05 K, 12200 kPa | – | 157.1
313.05 K, 14260 kPa | – | 161
313.15 K, 100 kPa | 1094.13 | –
313.15 K, 2000 kPa | 1095.13 | –
313.15 K, 4000 kPa | 1096.26 | –
313.15 K, 6000 kPa | 1097.28 | –
313.15 K, 8000 kPa | 1098.3 | –
313.15 K, 10000 kPa | 1099.33 | –
313.15 K, 12000 kPa | 1100.39 | –
313.15 K, 14000 kPa | 1101.41 | –
313.15 K, 20000 kPa | 1104.39 | –
313.15 K, 30000 kPa | 1109.19 | –
313.15 K, 40000 kPa | 1113.81 | –
313.15 K, 50000 kPa | 1118.25 | –
313.15 K, 60000 kPa | 1122.52 | –
318.15 K, 100 kPa | 1090.78 | –
318.15 K, 2000 kPa | 1091.83 | –
318.15 K, 4000 kPa | 1092.91 | –
318.15 K, 6000 kPa | 1094 | –
318.15 K, 8000 kPa | 1095.03 | –
318.15 K, 10000 kPa | 1096.1 | –
318.15 K, 12000 kPa | 1097.15 | –
318.15 K, 14000 kPa | 1098.18 | –
318.15 K, 20000 kPa | 1101.2 | –
318.15 K, 30000 kPa | 1106.06 | –
318.15 K, 40000 kPa | 1110.72 | –
318.15 K, 50000 kPa | 1115.21 | –
318.15 K, 60000 kPa | 1119.54 | –
323.15 K, 100 kPa | 1087.45 | –
323.15 K, 2000 kPa | 1088.5 | –
323.15 K, 4000 kPa | 1089.6 | –
323.15 K, 6000 kPa | 1090.68 | –
323.15 K, 8000 kPa | 1091.76 | –
323.15 K, 10000 kPa | 1092.8 | –
323.15 K, 12000 kPa | 1093.87 | –
323.15 K, 14000 kPa | 1094.9 | –
323.15 K, 20000 kPa | 1097.97 | –
323.15 K, 30000 kPa | 1102.88 | –
323.15 K, 40000 kPa | 1107.6 | –
323.15 K, 50000 kPa | 1112.12 | –
323.15 K, 60000 kPa | 1116.48 | –
323.43 K, 140 kPa | – | 83.7
323.46 K, 680 kPa | – | 84.3
323.55 K, 1710 kPa | – | 85
323.56 K, 13080 kPa | – | 96.3
323.58 K, 14330 kPa | – | 97.4
323.63 K, 9640 kPa | – | 92.7
323.65 K, 130 kPa | – | 83.6
323.65 K, 2760 kPa | – | 85.9
323.65 K, 6190 kPa | – | 88.2
323.65 K, 11060 kPa | – | 93.2
323.68 K, 4240 kPa | – | 86.8
323.73 K, 8190 kPa | – | 90.2
323.75 K, 10400 kPa | – | 92.1
323.75 K, 12340 kPa | – | 94
